# Experimental data from US11793849B2, “Method of Chinese herbal medicine extract used for treating multiple diseases caused by drug resistant bacteria infection” (priority 2016, dated 2023).
# Like-named read-outs stand apart in the source and are kept apart here.
# What was measured:
# [1] = test system: ESBL-producing ECO; test: Checkerboard assay (combined-use MIC, FIC); format: cell-based, Escherichia coli; conditions: 20 ESBL-producing ECOs
# Procedure: Test methods of the sensibilization effects of the test product to similar antibiotics: it is operated by referring to a checkerboard assay recommended by NCCLS.
# The checkerboard assay is performed in a 96-pore sterile culture plate.
# Calculation of a Fractional Inhibitory Concentration (FIC): FIC=S20b combined-use MIC/S20b single-use MIC+antibiotic combined-use MIC/antibiotic single-use MIC. By calculating the FIC, the combined antibacterial interaction between the EA and the antibiotic is evaluated, with synergistic effect for FIC≤0.5, additive effect for 0.5<FIC≤1, indifferent effect for 1<FIC≤2 and antagonistic effect for FIC>2. According to a sterile growth pore, the optimum concentration ratio between the EA and the antibiotic is founded out. At last, the effect of the EA to strengthen the efficacy of the antibiotic is evaluated.
# [2] = test system: ESBL-producing ECO; test: MIC determination, microdilution broth method; format: cell-based, Escherichia coli
# Procedure: Determination methods of a Minimal Inhibitory Concentration (MIC) and a Minimum Bactericidal Concentration (MBC) of a test product: the MIC and the MBC of the Pithecellobium clypearia Benth water or ethanol extract to the MDRAB are determined by a microdilution broth method. And it is operated by referring to the microdilution broth method recommended by National Committee for Clinical Laboratory Standards (NCCLS).
# By determining the MIC and the MBC of the drug and making statistics of the data to obtain MIC50, MIC90, MBC50 and MBC90, the effect of the MDRA resistance of the drug is evaluated.
# [3] = test system: ATCC25922; test: MIC determination, control strain; format: cell-based
# [4] = antibiotic with 10% ethanol extract
# [5] = antibiotic with 60% ethanol extract
# [6] = antibiotic with 95% ethanol extract
# [7] = EA = 10% ethanol extract, 20 ESBL-producing ECO strains
# [8] = EA = 60% ethanol extract, 20 ESBL-producing ECO strains
# [9] = EA = 95% ethanol extract, ESBL-producing ECOs
# [10] = EA = water extract, 20 ESBL-producing ECO strains
# [11] = single use, 20 ESBL-producing ECOs, section of the 10% ethanol extract
# [12] = single use, 20 ESBL-producing ECOs, section of the 60% ethanol extract
# [13] = single use, 20 ESBL-producing ECOs, section of the 95% ethanol extract
structure (smiles),measurement,setting,value
"NCC[C@H](O)C(=O)N[C@@H]1C[C@H](N)[C@@H](O[C@H]2O[C@H](CN)[C@@H](O)[C@H](O)[C@H]2O)[C@H](O)[C@H]1O[C@H]1O[C@H](CO)[C@@H](O)[C@H](N)[C@H]1O [AMK, Amikacin]","FIC, all strains",[1]; [4],≤ 2
same,MIC50 of the antibiotic after combined use,[1]; [4],4 µg/mL
same,MIC90 of the antibiotic after combined use,[1]; [4],16 µg/mL
same,reduction of the antibiotic's MIC50 vs single use,[1]; [4],75%
same,reduction of the antibiotic's MIC90 vs single use,[1]; [4],75%
same,share of strains with FIC ≤ 0.5,[1]; [4],50%
same,"FIC, all strains",[1]; [5],≤ 2
same,MIC50 of the antibiotic after combined use,[1]; [5],4 µg/mL
same,MIC90 of the antibiotic after combined use,[1]; [5],8 µg/mL
same,reduction of the antibiotic's MIC50 vs single use,[1]; [5],75%
same,share of strains with FIC ≤ 0.5,[1]; [5],70%
same,"FIC, all strains",[1]; [6],≤ 2
same,MIC50 of the antibiotic after combined use,[1]; [6],4 µg/mL
same,MIC90 of the antibiotic after combined use,[1]; [6],16 µg/mL
same,reduction of the antibiotic's MIC50 vs single use,[1]; [6],75%
same,reduction of the antibiotic's MIC90 vs single use,[1]; [6],75%
same,share of strains with FIC ≤ 0.5,[1]; [6],50%
same,"FIC, all strains",[1]; antibiotic with water extract,≤ 2
same,MIC50 of the antibiotic after combined use,[1]; antibiotic with water extract,4 µg/mL
same,MIC90 of the antibiotic after combined use,[1]; antibiotic with water extract,16 µg/mL
same,reduction of the antibiotic's MIC50 vs single use,[1]; antibiotic with water extract,75%
same,reduction of the antibiotic's MIC90 vs single use,[1]; antibiotic with water extract,75%
same,share of strains with FIC ≤ 0.5,[1]; antibiotic with water extract,50%
same,MIC50,[2]; [7],16 µg/mL
same,MIC90,[2]; [7],64 µg/mL
same,MIC Range,[2]; [7],4 to 512 µg/mL
same,MIC50,[2]; [8],16 µg/mL
same,MIC90,[2]; [8],64 µg/mL
same,MIC Range,[2]; [8],4 to 512 µg/mL
same,MIC50,[2]; [9],16 µg/mL
same,MIC90,[2]; [9],64 µg/mL
same,MIC Range,[2]; [9],4 to 512 µg/mL
same,MIC50,[2]; [10],16 µg/mL
same,MIC90,[2]; [10],64 µg/mL
same,MIC Range,[2]; [10],4 to 512 µg/mL
same,MIC,[2]; Escherichia coli,128 µg/mL
same,MIC50,"[2]; Escherichia coli, single use, 20 ESBL-producing ECOs, section of the water extract, read-out: MIC50",16 µg/mL
same,MIC90,"[2]; Escherichia coli, single use, 20 ESBL-producing ECOs, section of the water extract, read-out: MIC90",64 µg/mL
same,MIC50,[2]; [11],16 µg/mL
same,MIC90,[2]; [11],64 µg/mL
same,MIC50,[2]; [12],16 µg/mL
same,MIC90,[2]; [12],64 µg/mL
same,MIC50,[2]; [13],16 µg/mL
same,MIC90,[2]; [13],64 µg/mL
same,MIC,[3]; EA = 10% ethanol extract,4 µg/mL
same,MIC,[3]; EA = 60% ethanol extract,4 µg/mL
same,MIC,"[3]; EA = water extract, read-out: MIC",4 µg/mL
